In patent publication US11180452B2, “Methods and compositions for selectively inhibiting pathogenic microbes” (priority 2019, dated 2021):
Values after ≈ are worked out from the molar mass of the structure shown.

How the values were obtained:
Assay type in all cases: cell-based
Trichophyton rubrum = test: MIC against Trichophyton rubrum; conditions: Trichophyton rubrum Castellani Sabouraud ATCC: 28188; read-out: MIC
Bacillus subtilis = Bacillus subtilis MIC / MBC; conditions: for MBC: Bacillus subtilis NRRL: B-571, minimum bactericidal concentration; for MIC: Bacillus subtilis, Bacillus subtilis (Ehrenberg 1835) Cohn 1872 NRRL: B-571, read-out: MIC
Bacillus thuringiensis = Bacillus thuringiensis Berliner ATCC: 10792; for MIC: Bacillus thuringiensis, read-out: MIC
[1] = test system: Burkholderia thailandensis Brett et al ATCC: 700388; test: microbe, parasite or virus in culture
Candida glabrata = Candida glabrata MIC / MFC; conditions: Nakaseomyces glabratus, Candida glabrata #584 (Table 2); for MIC: read-out: MIC; for MFC: minimum fungicidal concentration, read-out: MFC
[2] = test system: Francisella tularensis subsp. Holarctica Strain LVSR NR-597; test: microbe, parasite or virus in culture

SMILES | MIC (Trichophyton rubrum) [µg/mL] | MBC (Bacillus subtilis) [µg/mL] | MIC (Bacillus subtilis) [µg/mL] | MBC (Bacillus thuringiensis) [µg/mL] | MIC (Bacillus thuringiensis) [µg/mL] | MIC [1] [µg/mL] | MIC (Candida glabrata) [µg/mL] | MIC [2] [µg/mL] | MFC (Candida glabrata) [µg/mL]
Brc1ccc(CSc2c[nH]c3ccc(Br)cc23)cc1 [Compound 174O, 5-bromo-3-((4-bromobenzyl)thio)-1H-indole] | 1.24 (≈ 3.12 µM) | > 50 | 3.13 (≈ 7.88 µM) | 3.13 (≈ 7.88 µM) | 3.13 (≈ 7.88 µM) | > 50 | > 50 | – | –
Cc1c(Sc2ccc(Br)cc2)[nH]c2ccccc12 [Compound 172B, 2-((4-bromophenyl)thio)-3-methyl-1H-indole] | 15.6 (≈ 49 µM) | 25 (≈ 78.6 µM) | 6.25 (≈ 19.6 µM) | 25 (≈ 78.6 µM) | 6.25 (≈ 19.6 µM) | – | 50 (≈ 157 µM) | 3.13 (≈ 9.84 µM) | –
Brc1ccc2[nH]cc(Sc3cccc4ccccc34)c2c1 [Compound 174G, 5-bromo-3-(naphthalen-1-ylthio)-1H-indole] | 2.21 (≈ 6.24 µM) | 50 (≈ 141 µM) | 1.56 (≈ 4.4 µM) | 3.13 (≈ 8.84 µM) | 1.56 (≈ 4.4 µM) | > 50 | > 50 | – | –
COc1ccc(Sc2c[nH]c3ccccc23)cc1 [Compound 156O, 3-((4-methoxyphenyl)thio)-1H-indole] | 3.19 (≈ 12.5 µM) | 12.5 (≈ 49 µM) | 6.25 (≈ 24.5 µM) | > 50 | 6.25 (≈ 24.5 µM) | – | 50 (≈ 196 µM) | 3.13 (≈ 12.3 µM) | –
Brc1ccc2[nH]cc(Sc3nc4ccccc4s3)c2c1 [Compound 174L, 2-((5-bromo-1H-indol-3-yl)thio)benzo[d]thiazole] | > 18 | > 50 | 1.56 (≈ 4.32 µM) | 50 (≈ 138 µM) | 1.56 (≈ 4.32 µM) | > 50 | > 50 | – | –
Brc1ccc2[nH]cc(Sc3ccc(-c4ccccc4)cc3)c2c1 [Compound 174R, 3-([1,1′-biphenyl]-4-ylthio)-5-bromo-1H-indole] | > 9.5 | – | > 50 | – | > 50 | > 50 | > 50 | – | –
COc1ccc(Sc2c[nH]c3ccc(Br)cc23)cc1 [Compound 174Q, 5-bromo-3-((4-methoxyphenyl)thio)-1H-indole] | 2.08 (≈ 6.22 µM) | > 50 | 1.56 (≈ 4.67 µM) | 12.5 (≈ 37.4 µM) | 1.56 (≈ 4.67 µM) | > 50 | 3.13 (≈ 9.36 µM) | – | > 50
Nc1cccc(Sc2c[nH]c3ccc(Br)cc23)c1 [Compound 174Y, 3-((5-bromo-1H-indol-3-yl)thio)aniline] | 3.97 (≈ 12.4 µM) | > 10 | 10 (≈ 31.3 µM) | > 10 | 10 (≈ 31.3 µM) | > 50 | 25 (≈ 78.3 µM) | – | –
COC(=O)c1ccc2[nH]cc(Sc3ccc(Br)cc3)c2c1 [Compound 172G, methyl 3-((4-bromophenyl)thio)-1H-indole-5-carboxylate] | 18.1 (≈ 50 µM) | 45 (≈ 124 µM) | 11.3 (≈ 31.2 µM) | > 45 | 11.3 (≈ 31.2 µM) | – | > 50 | – | –
Brc1ccc2[nH]cc(SCc3ccccc3)c2c1 [Compound 174K, 3-(benzylthio)-5-bromo-1H-indole] | 1.98 (≈ 6.22 µM) | 6.25 (≈ 19.6 µM) | 3.13 (≈ 9.84 µM) | 6.25 (≈ 19.6 µM) | 3.13 (≈ 9.84 µM) | > 50 | 6.25 (≈ 19.6 µM) | – | 12.5 (≈ 39.3 µM)
Nc1ccc(Sc2c[nH]c3ccc(Br)cc23)cc1 [Compound 174Z, 4-((5-bromo-1H-indol-3-yl)thio)aniline] | 3.97 (≈ 12.4 µM) | > 10 | 10 (≈ 31.3 µM) | > 10 | 10 (≈ 31.3 µM) | > 50 | 25 (≈ 78.3 µM) | – | –
Clc1cccc(Sc2c[nH]c3ccc(Br)cc23)c1Cl [Compound 174T, 5-bromo-3-((2,3-dichlorophenyl)thio)-1H-indole] | 1.16 (≈ 3.11 µM) | > 10 | 1.25 (≈ 3.35 µM) | 2.5 (≈ 6.7 µM) | 1.25 (≈ 3.35 µM) | > 50 | 3.13 (≈ 8.39 µM) | – | 25 (≈ 67 µM)
Brc1ccc2[nH]cc(Sc3ccc4ccccc4c3)c2c1 [Compound 174S, 5-bromo-3-(naphthalen-2-ylthio)-1H-indole] | > 8.82 | – | > 50 | – | > 50 | > 50 | > 50 | – | –
